This is an account of results in patent US20180221487A1, “NOVEL PROTEIN TRANSFECTION COMPOSITIONS AND USES THEREOF” (Chang Gung Memorial Hospital, Linkou, priority 2017, published 2018).

For experiment [1], the system named is ovarian (MDAH2774) cancer cells. Nature of the experiment: Protein transfection efficiency by flow cytometry. The format is cell-based, human. To be noted: transfected using HEPES buffer (20-30 mM). How it is done:
FIG. 1 depicts the method of protein transfection in its simplest form: (A) proteins of interest and a protein transfection composition, such as HEPES buffer, are mixed and incubated for about 15 min to about 30 min (“the first incubation time”) to form a mixture. (B) Cells to be transfected are cultured with a first cultured medium comprising at least about 10% fetal bovine serum for about 24 hours, followed by the replacement of the first cultured medium with a minimal essential medium. (C) The mixture in step (A) is added to the cells in minimal essential medium in Step (B) and incubated at 37° C. for about 4 to about 24 hours (“the second incubation time”). (D) The protein transfection efficiency can be analyzed using various methods, such as immunofluorescent staining and flow cytometry. Flow cytometry: After protein transfection was completed, the cells in the culture dish were washed with PBS, trypsinized and pelleted. The cells were mixed with Fixation/Permeabilization (eBioscience, Inc., San Diego, Calif., USA) working solution and incubated at 4° C. for 30 min to 24 h. […] Cells were suspended in 1×PBS and analyzed by flow cytometry (BD Biosciences, Qume Drive San Jose, Calif., USA). […] The protein transfection efficiency can be analyzed using immunofluorescent staining or flow cytometry (Panel D). […]
(In general: A flow cytometer gives signals particle by particle.)

Experiment [2] concerns human ovarian cancer cells (MDAH2774). Nature of the experiment: Protein transfection, immunofluorescent staining / confocal microscopy. The format is cell-based. To be noted: transfected using 20-30 mM HEPES buffer. As to the method:
Immunofluorescent staining procedure: After protein transfection is completed, the cells in the culture dish were washed three times with phosphate buffered saline (PBS) and fixed with 4% paraformaldehyde for 20 min. The cells were washed again with PBS, perforated with 0.1% Triton X-100 for 5 min, and blocked with 10% BSA for 30 min. For Alexa Fluor 488 anti-mouse IgGs, cells were stained with DAPI for 10 min. For B23, histone 1 or GAPDH antibody transfection, cells were stained with Alexa Fluor 488 or 546 anti-mouse IgG antibodies for 30 min and then stained with DAPI. For rhSTIP1 proteins or Flag-Rev peptides transfection, cells were stained with anti-v5 or anti-flag antibodies, respectively, and then stained with Alexa Fluor 488 anti-mouse IgG and DAPI. All images were detected by confocal microscopes (Leica, Wetzlar, Germany). The fluorescent signals were analyzed and quantified by Q-Win software (Leica, Wetzlar, Germany).
FIG. 1 schematically illustrates the protein transfection procedure. Briefly, the protein of interest and a protein transfection composition, such as HEPES buffer, were mixed and incubated for about 15 min to about 30 min to form a mixture (Panel A). Cells to be transfected were replaced in a minimal essential medium (Panel B). The mixture in Panel A was added to the cells in Panel B and incubated at 37° C. for about 4 to about 24 hours (Panel C). The protein transfection efficiency can be analyzed using immunofluorescent staining or flow cytometry (Panel D).
An in vitro evaluation of the optimal protein transfection condition was performed. According to the steps in FIG. 1. rhSTIP1 was incubated with HEPES buffers of different concentrations (5 or 20 mM) or Opti-MEM (control) at room temperature for about 15 minutes to form the protein mixtures to transfect human ovarian cancer cells. The mixtures were added to the cell culture dish comprising Opti-MEM and incubated at 37° C. for about 4 to about 24 hours.
Different amounts of Alexa Fluor® 488 anti-mouse IgG (0, 2, 4, 8, or 16 μg) were incubated with 20 mM HEPES buffer and mixed with ovarian (MDAH2774) cancer cells in Opti-MEM.
Alexa Fluor 488 anti-mouse IgG antibodies were mixed with 20 mM HEPES to form a mixture. […] Protein transfection efficiency was assessed using confocal fluorescent microscope.
The following proteins were incubated with Opti-MEM (control group) or 20-30 mM HEPES buffer to transfect ovarian cancer cells (MDAH2774 or MOSEC) or endometrial cancer cells: Alexa Fluor 488-conjugated, anti-mouse IgG antibody (about 150 kDa), anti-B23 antibody, anti-histone 1 antibody, anti-STIP1 antibody, rhSTIP1 protein (62.6 kDa), Flag-Rev peptide (<5 kDa) and FITC-Rev peptide (<5 kDa). […] Protein transfection efficiency was assessed by staining the transfected cancer cells with Alexa Fluor 488 or 594 anti-mouse IgG antibodies (for Alexa Fluor 488-conjugated anti-mouse IgG antibody, anti-B23 antibody, anti-histone 1 antibody, anti-STIP1 antibody), v5 antibody (for rhSTIP1), or anti-Flag antibody (for Flag-Rev peptide), and fluorescent signals were analyzed with confocal microscopy.
The protein transfection efficiency of HEPES was compared to other commercial reagents, such as PULsin™, ProteoJuice™, Pro-Ject™, Xfect™, and BioPORTER®. […] The transfected ovarian cancer cells were stained with Alexa Fluor 488 anti-mouse IgG antibodies and protein transfection efficiency was assessed by confocal fluorescent microscopy.

“rhSTIP1: v5-tagged recombinant human STIP1 protein (BiP-STIP1-V5-His), 62.6 kDa”: the “transfection efficiency: signal detected in % of the ovarian cancer cells” value in experiment [1] turned out to be 99.6%. Also, the “fluorescent signal of transfected protein (confocal microscopy)” value in experiment [2] is “detected”.
